Species on record: Rattus norvegicus
Assay: DrugMatrix - Regimen: Daily Repeat
Format: toxicity, organism-based, Sprague-Dawley
Set-up: regimen Daily Repeat, gender Male, age 6-8 weeks
Conditions: in vivo, po, route oral GAVAGE, […]; for URIC ACID / ALANINE AMINOTRANSFERASE / ALBUMIN / ALKALINE PHOSPHATASE / ASPARTATE AMINOTRANSFERASE / BLOOD UREA NITROGEN / CARBON DIOXIDE / CHLORIDE / CHOLESTEROL / CREATINE PHOSPHOKINASE / CREATININE / GLUCOSE / LACTATE DEHYDROGENASE / LIPASE / PHOSPHORUS / POTASSIUM / SODIUM / TOTAL BILIRUBIN / TOTAL PROTEIN: tissue Plasma
[1] = 1 mg/kg, 120 h, tissue Blood, dose level Low, time 5 day
[2] = 1 mg/kg, 120 h, dose level Low, time 5 day
[3] = 2.75 mg/kg, 72 h, tissue Blood, dose level High, time 3 day
[4] = 2.75 mg/kg, 72 h, dose level High, time 3 day
[5] = 2.75 mg/kg, 120 h, tissue Blood, dose level High, time 5 day
[6] = 2.75 mg/kg, 120 h, dose level High, time 5 day

SMILES: C[C@H]1O[C@@H](O[C@H]2[C@@H](O)C[C@H](O[C@H]3[C@@H](O)C[C@H](O[C@H]4CC[C@@]5(C)[C@H](CC[C@@H]6[C@@H]5CC[C@]5(C)[C@@H](C7=CC(=O)OC7)CC[C@]65O)C4)O[C@@H]3C)O[C@@H]2C)C[C@H](O)[C@@H]1O [DIGITOXIN]
- URIC ACID (1 mg/kg, 72 h, dose level Low, time 3 day): 0.53 mg/dL
- ABSOLUTE BASOPHIL [1]: 0 CELLS/uL
- ABSOLUTE EOSINOPHIL [1]: 0 CELLS/uL
- ABSOLUTE LYMPHOCYTE [1]: 9184 CELLS/uL
- ABSOLUTE MONOCYTE [1]: 19 CELLS/uL
- ABSOLUTE SEGMENTED NEUTROPHIL [1]: 697 CELLS/uL
- BASOPHIL [1]: 0%
- EOSINOPHIL [1]: 0%
- ERYTHROCYTE COUNT [1]: 5.65 x10E6/uL
- HEMATOCRIT [1]: 35.27%
- HEMOGLOBIN [1]: 13.63 G/DL
- LEUKOCYTE COUNT [1]: 9.9 x10E3/uL
- LYMPHOCYTE [1]: 93%
- MEAN CORPUSCULAR HEMOGLOBIN [1]: 24.2 pg
- MEAN CORPUSCULAR HEMOGLOBIN CONCENTRATION [1]: 38.7 G/DL
- MEAN CORPUSCULAR VOLUME [1]: 62.47 fL
- MONOCYTE [1]: 0.33%
- NEUTROPHIL [1]: 6.67%
- NUCLEATED RED BLOOD CELLS [1]: 0 /100WBC
- PLATELET COUNT [1]: 833 x10E3/uL
- ALANINE AMINOTRANSFERASE [2]: 84.33 u/L
- ALBUMIN [2]: 4.1 G/DL
- ALKALINE PHOSPHATASE [2]: 531.67 u/L
- ASPARTATE AMINOTRANSFERASE [2]: 83 u/L
- BLOOD UREA NITROGEN [2]: 10.67 mg/dL
- CARBON DIOXIDE [2]: 34.67 mmol/L
- CHLORIDE [2]: 98.33 MEQ/L
- CHOLESTEROL [2]: 76.67 mg/dL
- CREATINE PHOSPHOKINASE [2]: 231.33 u/L
- CREATININE [2]: 0.16 mg/dL
- GLUCOSE [2]: 154 mg/dL
- LACTATE DEHYDROGENASE [2]: 122.67 u/L
- LIPASE [2]: 10 u/L
- PHOSPHORUS [2]: 10.13 mg/dL
- POTASSIUM [2]: 5.23 MEQ/L
- SODIUM [2]: 142.43 MEQ/L
- TOTAL BILIRUBIN [2]: 0.23 mg/dL
- TOTAL PROTEIN [2]: 5.83 G/DL
- URIC ACID [2]: 0.43 mg/dL
- ABSOLUTE BASOPHIL [3]: 0 CELLS/uL
- ABSOLUTE EOSINOPHIL [3]: 0 CELLS/uL
- ABSOLUTE LYMPHOCYTE [3]: 10747 CELLS/uL
- ABSOLUTE MONOCYTE [3]: 27.33 CELLS/uL
- ABSOLUTE SEGMENTED NEUTROPHIL [3]: 592.33 CELLS/uL
- BASOPHIL [3]: 0%
- EOSINOPHIL [3]: 0%
- ERYTHROCYTE COUNT [3]: 5.51 x10E6/uL
- HEMATOCRIT [3]: 33.6%
- HEMOGLOBIN [3]: 13.4 G/DL
- LEUKOCYTE COUNT [3]: 11.37 x10E3/uL
- LYMPHOCYTE [3]: 94.33%
- MEAN CORPUSCULAR HEMOGLOBIN [3]: 24.33 pg
- MEAN CORPUSCULAR VOLUME [3]: 61.03 fL
- MONOCYTE [3]: 0.33%
- NEUTROPHIL [3]: 5.33%
- NUCLEATED RED BLOOD CELLS [3]: 0 /100WBC
- PLATELET COUNT [3]: 448 x10E3/uL
- ALANINE AMINOTRANSFERASE [4]: 73 u/L
- ALBUMIN [4]: 3.8 G/DL
- ALKALINE PHOSPHATASE [4]: 350.67 u/L
- ASPARTATE AMINOTRANSFERASE [4]: 101.33 u/L
- BLOOD UREA NITROGEN [4]: 11.67 mg/dL
- CARBON DIOXIDE [4]: 23.33 mmol/L
- CHLORIDE [4]: 96 MEQ/L
- CHOLESTEROL [4]: 61.33 mg/dL
- CREATINE PHOSPHOKINASE [4]: 274.33 u/L
- CREATININE [4]: 0.13 mg/dL
- GLUCOSE [4]: 147.33 mg/dL
- LACTATE DEHYDROGENASE [4]: 153 u/L
- LIPASE [4]: 10.67 u/L
- PHOSPHORUS [4]: 9.03 mg/dL
- POTASSIUM [4]: 5.47 MEQ/L
- SODIUM [4]: 137.1 MEQ/L
- TOTAL BILIRUBIN [4]: 0.2 mg/dL
- TOTAL PROTEIN [4]: 5.33 G/DL
- URIC ACID [4]: 0.67 mg/dL
- ABSOLUTE BASOPHIL [5]: 0 CELLS/uL
- ABSOLUTE EOSINOPHIL [5]: 0 CELLS/uL
- ABSOLUTE LYMPHOCYTE [5]: 7671 CELLS/uL
- ABSOLUTE MONOCYTE [5]: 21 CELLS/uL
- ABSOLUTE SEGMENTED NEUTROPHIL [5]: 641.33 CELLS/uL
- BASOPHIL [5]: 0%
- EOSINOPHIL [5]: 0%
- ERYTHROCYTE COUNT [5]: 5.28 x10E6/uL
- HEMATOCRIT [5]: 33.33%
- HEMOGLOBIN [5]: 12.97 G/DL
- LEUKOCYTE COUNT [5]: 8.33 x10E3/uL
- LYMPHOCYTE [5]: 92%
- MEAN CORPUSCULAR HEMOGLOBIN [5]: 24.53 pg
- MEAN CORPUSCULAR VOLUME [5]: 63 fL
- MONOCYTE [5]: 0.33%
- NEUTROPHIL [5]: 7.67%
- NUCLEATED RED BLOOD CELLS [5]: 0.33 /100WBC
- PLATELET COUNT [5]: 1052.33 x10E3/uL
- ALANINE AMINOTRANSFERASE [6]: 67.67 u/L
- ALBUMIN [6]: 4.03 G/DL
- ALKALINE PHOSPHATASE [6]: 389.33 u/L
- ASPARTATE AMINOTRANSFERASE [6]: 88.67 u/L
- BLOOD UREA NITROGEN [6]: 14.67 mg/dL
- CARBON DIOXIDE [6]: 35 mmol/L
- CHLORIDE [6]: 99.67 MEQ/L
- CHOLESTEROL [6]: 57.33 mg/dL
- CREATINE PHOSPHOKINASE [6]: 199.67 u/L
- CREATININE [6]: 0.15 mg/dL
- GLUCOSE [6]: 156.67 mg/dL
- LACTATE DEHYDROGENASE [6]: 157.67 u/L
- LIPASE [6]: 9.67 u/L
- PHOSPHORUS [6]: 10.33 mg/dL
- POTASSIUM [6]: 5.37 MEQ/L
- SODIUM [6]: 144.23 MEQ/L
- TOTAL BILIRUBIN [6]: 0.17 mg/dL
- TOTAL PROTEIN [6]: 5.67 G/DL
- URIC ACID [6]: 0.5 mg/dL
